Numbers after ± are expanded uncertainties.
Test: xn = mol fraction of the nth substance listed
Details: 101.3 kPa, Liquid

CCCCCC(C)O (stereo unspecified) [2-heptanol] + O=C1CCCCC1
Details | mass density, 298.15 K [kg/m3] | mass density, 303.15 K [kg/m3] | mass density, 308.15 K [kg/m3] | mass density, 313.15 K [kg/m3] | viscosity, 298.15 K [mPa·s] | viscosity, 303.15 K [mPa·s] | viscosity, 308.15 K [mPa·s] | viscosity, 313.15 K [mPa·s]
x2 = 0 | 813.18 ± 0.55 | 809.26 ± 0.55 | 805.01 ± 0.56 | 801.14 ± 0.56 | 5.023 ± 0.06 | 4.151 ± 0.05 | 3.478 ± 0.042 | 2.852 ± 0.035
x2 = 0.0826 | 820.37 ± 0.54 | 816.21 ± 0.54 | 811.69 ± 0.55 | 807.61 ± 0.55 | 4.282 ± 0.052 | 3.546 ± 0.043 | 2.94 ± 0.036 | 2.412 ± 0.03
x2 = 0.1625 | 827.64 ± 0.53 | 823.36 ± 0.53 | 818.81 ± 0.54 | 814.53 ± 0.55 | 3.64 ± 0.044 | 2.986 ± 0.037 | 2.448 ± 0.03 | 1.989 ± 0.025
x2 = 0.2415 | 835.26 ± 0.52 | 830.91 ± 0.53 | 826.28 ± 0.53 | 821.87 ± 0.54 | 3.081 ± 0.038 | 2.473 ± 0.031 | 1.999 ± 0.025 | 1.604 ± 0.021
x2 = 0.3506 | 846.69 ± 0.51 | 842.19 ± 0.51 | 837.46 ± 0.52 | 832.94 ± 0.52 | 2.401 ± 0.03 | 1.874 ± 0.024 | 1.482 ± 0.019 | 1.151 ± 0.015
x2 = 0.44 | 856.83 ± 0.49 | 852.22 ± 0.5 | 847.44 ± 0.51 | 842.79 ± 0.51 | 1.954 ± 0.025 | 1.468 ± 0.019 | 1.141 ± 0.015 | 0.862 ± 0.012
x2 = 0.5603 | 871.72 ± 0.48 | 866.99 ± 0.48 | 862.12 ± 0.49 | 857.35 ± 0.49 | 1.513 ± 0.019 | 1.107 ± 0.015 | 0.849 ± 0.012 | 0.627 ± 0.009
x2 = 0.6494 | 883.79 ± 0.46 | 878.98 ± 0.47 | 874.11 ± 0.47 | 869.26 ± 0.48 | 1.308 ± 0.017 | 0.971 ± 0.013 | 0.773 ± 0.011 | 0.576 ± 0.009
x2 = 0.7394 | 896.96 ± 0.45 | 892.15 ± 0.45 | 887.29 ± 0.46 | 882.32 ± 0.46 | 1.243 ± 0.016 | 0.976 ± 0.013 | 0.816 ± 0.011 | 0.647 ± 0.009
x2 = 0.85 | 914.67 ± 0.42 | 909.91 ± 0.43 | 905.04 ± 0.44 | 900.06 ± 0.44 | 1.391 ± 0.018 | 1.193 ± 0.016 | 1.054 ± 0.014 | 0.91 ± 0.012
x2 = 0.9392 | 930.26 ± 0.41 | 925.58 ± 0.41 | 920.79 ± 0.42 | 915.85 ± 0.42 | 1.727 ± 0.022 | 1.535 ± 0.02 | 1.411 ± 0.018 | 1.256 ± 0.016

O=C1CCCCC1 [cyclohexanone] + CCC(C)O
Details | mass density, 298.15 K [kg/m3] | mass density, 303.15 K [kg/m3] | mass density, 308.15 K [kg/m3] | mass density, 313.15 K [kg/m3] | viscosity, 298.15 K [mPa·s] | viscosity, 303.15 K [mPa·s] | viscosity, 308.15 K [mPa·s] | viscosity, 313.15 K [mPa·s]
x1 = 0.0814 | 814.99 ± 0.55 | 811.03 ± 0.55 | 805.17 ± 0.56 | 800.53 ± 0.56 | 2.511 ± 0.031 | 2.163 ± 0.027 | 1.828 ± 0.023 | 1.441 ± 0.019
x1 = 0.1598 | 826.39 ± 0.53 | 822.21 ± 0.54 | 816.34 ± 0.54 | 811.48 ± 0.55 | 2.067 ± 0.026 | 1.82 ± 0.023 | 1.561 ± 0.02 | 1.186 ± 0.016
x1 = 0.2444 | 838.54 ± 0.52 | 834.13 ± 0.52 | 828.18 ± 0.53 | 823.15 ± 0.54 | 1.737 ± 0.022 | 1.535 ± 0.02 | 1.33 ± 0.017 | 0.982 ± 0.013
x1 = 0.3514 | 853.71 ± 0.5 | 849.09 ± 0.5 | 843.19 ± 0.51 | 838.01 ± 0.52 | 1.472 ± 0.019 | 1.305 ± 0.017 | 1.128 ± 0.015 | 0.841 ± 0.011
x1 = 0.4404 | 866.19 ± 0.48 | 861.39 ± 0.49 | 855.62 ± 0.5 | 850.33 ± 0.5 | 1.361 ± 0.018 | 1.206 ± 0.016 | 1.039 ± 0.014 | 0.794 ± 0.011
x1 = 0.5596 | 882.62 ± 0.46 | 877.71 ± 0.47 | 872.19 ± 0.48 | 866.91 ± 0.48 | 1.332 ± 0.017 | 1.183 ± 0.015 | 1.036 ± 0.014 | 0.825 ± 0.011
x1 = 0.6523 | 895.31 ± 0.45 | 890.36 ± 0.45 | 884.99 ± 0.46 | 879.69 ± 0.47 | 1.4 ± 0.018 | 1.249 ± 0.016 | 1.108 ± 0.015 | 0.914 ± 0.012
x1 = 0.738 | 906.94 ± 0.43 | 901.93 ± 0.44 | 896.81 ± 0.45 | 891.52 ± 0.45 | 1.501 ± 0.019 | 1.354 ± 0.018 | 1.224 ± 0.016 | 1.051 ± 0.014
x1 = 0.8494 | 921.86 ± 0.42 | 916.99 ± 0.42 | 912.09 ± 0.43 | 907.01 ± 0.43 | 1.704 ± 0.022 | 1.558 ± 0.02 | 1.41 ± 0.018 | 1.248 ± 0.016
x1 = 0.9361 | 933.34 ± 0.4 | 928.57 ± 0.41 | 924.04 ± 0.41 | 918.99 ± 0.42 | 1.889 ± 0.024 | 1.716 ± 0.022 | 1.572 ± 0.02 | 1.43 ± 0.018
x1 = 1 | 941.91 ± 0.39 | 937.24 ± 0.4 | 932.67 ± 0.4 | 927.72 ± 0.41 | 2.057 ± 0.026 | 1.847 ± 0.023 | 1.694 ± 0.021 | 1.546 ± 0.02

CCCC(C)O (stereo unspecified) [pentan-2-ol] + O=C1CCCCC1
Details | mass density, 298.15 K [kg/m3] | mass density, 303.15 K [kg/m3] | mass density, 308.15 K [kg/m3] | mass density, 313.15 K [kg/m3] | viscosity, 298.15 K [mPa·s] | viscosity, 303.15 K [mPa·s] | viscosity, 308.15 K [mPa·s] | viscosity, 313.15 K [mPa·s]
x2 = 0 | 805.41 ± 0.56 | 801.21 ± 0.56 | 796.64 ± 0.57 | 792.51 ± 0.57 | 3.499 ± 0.043 | 2.801 ± 0.034 | 2.334 ± 0.029 | 1.993 ± 0.025
x2 = 0.0824 | 815.31 ± 0.55 | 810.99 ± 0.55 | 806.31 ± 0.56 | 801.99 ± 0.56 | 2.631 ± 0.033 | 2.307 ± 0.029 | 1.891 ± 0.024 | 1.596 ± 0.02
x2 = 0.1615 | 825.12 ± 0.53 | 820.69 ± 0.54 | 815.92 ± 0.54 | 811.53 ± 0.55 | 2.178 ± 0.027 | 1.893 ± 0.024 | 1.541 ± 0.02 | 1.285 ± 0.017
x2 = 0.2401 | 835.08 ± 0.52 | 830.58 ± 0.53 | 825.68 ± 0.53 | 821.06 ± 0.54 | 1.822 ± 0.023 | 1.58 ± 0.02 | 1.265 ± 0.016 | 1.056 ± 0.014
x2 = 0.3492 | 849.18 ± 0.5 | 844.64 ± 0.51 | 839.56 ± 0.52 | 834.77 ± 0.52 | 1.465 ± 0.019 | 1.241 ± 0.016 | 1.007 ± 0.013 | 0.838 ± 0.011
x2 = 0.4397 | 861.19 ± 0.49 | 856.51 ± 0.49 | 851.41 ± 0.5 | 846.47 ± 0.51 | 1.277 ± 0.017 | 1.081 ± 0.014 | 0.881 ± 0.012 | 0.75 ± 0.01
x2 = 0.5607 | 877.71 ± 0.47 | 872.97 ± 0.47 | 867.74 ± 0.48 | 862.65 ± 0.49 | 1.191 ± 0.016 | 1.016 ± 0.014 | 0.865 ± 0.012 | 0.771 ± 0.011
x2 = 0.6496 | 890.14 ± 0.45 | 885.41 ± 0.46 | 880.19 ± 0.47 | 875.09 ± 0.47 | 1.23 ± 0.016 | 1.072 ± 0.014 | 0.935 ± 0.013 | 0.848 ± 0.012
x2 = 0.7399 | 903.04 ± 0.44 | 898.27 ± 0.44 | 893.11 ± 0.45 | 888.08 ± 0.46 | 1.354 ± 0.018 | 1.205 ± 0.016 | 1.062 ± 0.014 | 0.982 ± 0.013
x2 = 0.8498 | 919.21 ± 0.42 | 914.43 ± 0.42 | 909.42 ± 0.43 | 904.33 ± 0.44 | 1.597 ± 0.02 | 1.417 ± 0.018 | 1.294 ± 0.017 | 1.194 ± 0.016
x2 = 0.9396 | 932.71 ± 0.4 | 928.12 ± 0.41 | 923.33 ± 0.41 | 917.99 ± 0.42 | 1.855 ± 0.023 | 1.685 ± 0.021 | 1.523 ± 0.019 | 1.388 ± 0.018

CCC(C)O (stereo unspecified) [butan-2-ol] + O=C1CCCCC1
x2 = 0
Details | mass density [kg/m3] | viscosity [mPa·s]
298.15 K | 803.01 ± 0.56 | 3.104 ± 0.038
303.15 K | 798.29 ± 0.57 | 2.597 ± 0.032
308.15 K | 793.57 ± 0.57 | 2.152 ± 0.027
313.15 K | 789.15 ± 0.58 | 1.733 ± 0.022

O=C1CCCCC1 [cyclohexanone] + CCCC(C)O
x1 = 1
Details | mass density [kg/m3] | viscosity [mPa·s]
298.15 K | 941.91 ± 0.39 | 2.057 ± 0.026
303.15 K | 937.24 ± 0.4 | 1.847 ± 0.023
308.15 K | 932.67 ± 0.4 | 1.694 ± 0.021
313.15 K | 927.72 ± 0.41 | 1.546 ± 0.02

O=C1CCCCC1 [cyclohexanone] + CCCCCC(C)O
x1 = 1
Details | mass density [kg/m3] | viscosity [mPa·s]
298.15 K | 941.91 ± 0.39 | 2.057 ± 0.026
303.15 K | 937.24 ± 0.4 | 1.847 ± 0.023
308.15 K | 932.67 ± 0.4 | 1.694 ± 0.021
313.15 K | 927.72 ± 0.41 | 1.546 ± 0.02

CC(C)O [propan-2-ol] + O=C1CCCCC1
x2 = 0
Details | mass density [kg/m3] | viscosity [mPa·s]
298.15 K | 781.09 ± 0.59 | 2.055 ± 0.026
303.15 K | 776.57 ± 0.59 | 1.788 ± 0.023
308.15 K | 771.87 ± 0.6 | 1.563 ± 0.02
313.15 K | 767.36 ± 0.6 | 1.378 ± 0.018

Source: the NIST ThermoML archive (doi:10.1021/je200806n)
